Measured values published in patent US20030032581A1, “Pharmaceuticals for treating obesity” (priority 1999, published 2003).
Marks after values point to notes of the source that are not given here.

How the values were obtained:
[1] = tested on: 3T3-L1 cells; test: 3T3-L1 preadipocyte differentiation (aP2 expression); format: cell-based; conditions: Mus musculus, 3T3-L1, 120 h; 100 nM rosiglitazone, 5 days; read-out: IC50, block of rosiglitazone stimulated aP2 expression
Method: 3T3-L1 cells were obtained from American Type Culture Collection. Passage numbers 3 to 9 were used in all the studies. Monolayer fibroblasts were maintained in medium A (Dulbecco's modified Eagle's medium with 10% fetal calf serum, 100 units/ml penicillin, and 100 μg/ml streptomycin) at 37° C. in 5% CO2. […] Total RNA was prepared using Ultraspec™ RNA isolation system (Biotecx, Houston, Tex.). RNA concentration was quantitated by absorbance at 260 nm. Equal amount of RNA samples were denatured in formamide/formaldehyde and applied to Hybond™-N membranes (Amersham) using a slot blot apparatus (BioRad). Prehybridization was performed at 42° C. for 1-3 h in 40-50% formamide in a solution containing 25 mM sodium phosphate, pH 7.4, 0.9 M sodium chloride, 50 mM sodium citrate, 0.1% each of gelatin, ficoll, and polyvinylpyrollidone, 0.5% SDS, and 100 μg/ml denatured salmon sperm DNA. Hybridization was carried out at the same temperature for 20h in the same solution with ^32P-labeled aP2 cDNA probe (2×10^6 cpm/ml). After washing the membranes under appropriately stringent conditions, the hybridization signals were analyzed with a Phosphorlmager (Molecular Dynamics).

[2] = tested on: fat-fed C57BL/6J mice; test: Fat-fed C57BL/6J mice, obesity and metabolic parameters; format: in vivo; conditions: HF diet + 50 mg/kg/day
Method: At the end of that time the animals had gained 16g, 22 g and 20.5 g, respectively (FIG. 3). […] Analysis of whole body triglyceride content and protein content were performed as described in Moller et al (Endocrinology 137:2397-2405, 1996). […] Thus, treatment with the PPARγ antagonist caused relative decreases in body adiposity and increases in lean body mass in fat fed mice. The plasma levels of glucose, triglycerides and free fatty acid levels were all increased in the HF group relative to the LF group (see Table below).

[3] = tested on: ob/ob mice; test: ob/ob mice, plasma insulin; format: in vivo; conditions: once daily dosing
Source text: The PPAR-gamma antagonists/partial agonists are therefore effective in treating the obesity and other symptoms that generally occur in non-insulin dependent diabetes, such as elevated levels of glucose, triglycerides, and insulin in the plasma.

O=C(O)c1c(Sc2ccccc2)c2cc(Cl)ccc2n1Cc1ccc(Cl)cc1 [Compound I, 1-(p-chlorobenzyl)-5-chloro-3-thiophenylindole-2-carboxylic acid]
IC50 [1]: ~300 nM | body weight gained ([2]; 72 days): 20.5 g | Plasma free fatty acids ([2]; mean +/- SE of 10 mice): 0.536 +/− 0.02* mM | Plasma glucose ([2]; mean +/- SE of 10 mice): 145.6 +/− 4.1* mg/dl | Plasma triglycerides ([2]; mean +/- SE of 10 mice): 71.4 +/− 4.1** mg/dl | Serum insulin ([2]; mean +/- SE of 10 mice): 1.35 ± 0.21 ng/mL | reduction in elevated levels of mean plasma insulin [3]: 30-50%
